{"source": "patent US20100055181A1", "about": "“CONTROLLED RELEASE DOSAGE FORMS OF ZOLPIDEM” (LUPIN LIMITED, priority 2006, published 2010)", "origin": "cited, not measured here", "details": "hypnotic action, oral, conventional forms"}
{"smiles": "Cc1ccc(-c2nc3ccc(C)cn3c2CC(=O)N(C)C)cc1", "note": "[zolpidem]", "values": [{"measurement": "duration of action", "value": "up to 6 hours"}]}
